Measured values reported in patent US5120841A, “Cephalosporin ester derivatives” (Takeda Chemical Industries, Ltd., priority 1983, dated 1992).
Where a name gives a salt, the structure may show the parent alone.

Experiments:
[1] = oral administration to mice: plasma level of non-ester compound (compound [II]), AUC and bioavailability; type: in vivo; conditions: compound [II] in plasma, 100 mg/kg (in terms of compound [II]), zero to 2 hours
Klebsiella pneumoniae = conditions: gram-negative bacteria, Antimicrobial Agent and Chemotherapy 14, 557-568 (1978); cited from earlier work
[2] = mouse, in vivo, sc, 120 min
Procedure: At 0.25, 0.5, 1.0 and 2.0 hours after administration, the concentration of compound [II] in plasma of the mouse is measured by the cup method using Proteus mirabilis Eb 313 as the test organism and the area under plasma concentration-time curve from zero to 2 hours (AUC) is calculated.
The compound [II ] was subcutaneously applied and AUC was calculated in the same manner as above.

Proteus vulgaris = conditions: gram-negative bacteria, Antimicrobial Agent and Chemotherapy 14, 557-568 (1978); cited from earlier work
Staphylococcus aureus = conditions: gram-positive bacteria, Antimicrobial Agent and Chemotherapy 14, 557-568 (1978); cited from earlier work
Escherichia coli = conditions: gram-negative bacteria, Antimicrobial Agent and Chemotherapy 14, 557-568 (1978); cited from earlier work
Proteus mirabilis = conditions: gram-negative bacteria, Antimicrobial Agent and Chemotherapy 14, 557-568 (1978); cited from earlier work
proteus morganii = conditions: gram-negative bacteria, Antimicrobial Agent and Chemotherapy 14, 557-568 (1978); cited from earlier work

Structure (SMILES)	AUC [1] [ng·h/mL]	further results
CC(OC(=O)OC1CCCCC1)OC(=O)C1=C(CSc2nnnn2CCN(C)C)CS[C@@H]2[C@H](NC(=O)Cc3csc(N)n3)C(=O)N12.Cl.Cl (stereo partly drawn) [Example 2-1, 1-(Cyclohexyloxycarbonyloxy)ethyl 7β-[2-(2-aminothiazol-4-yl)acetamido]-3-[[[1-(2-dimethylaminoethyl)-1H-tetrazol-5-yl]thio]methyl]ceph-3-em-4-carboxylate dihydrochloride]	30000	–
CCOC(=O)OC(C)OC(=O)C1=C(CSc2nnnn2CCN(C)C)CS[C@@H]2[C@H](NC(=O)Cc3csc(N)n3)C(=O)N12 (stereo partly drawn) [A, 1-(ethoxycarbonyloxy)ethyl 78-[2-(2-aminothiazol-4-yl)acetamido]-3-[[[1-(2-dimethylaminoethyl)-1H-tetrazol-5-yl]-thio]methyl]ceph-3-em-4-carboxylate, reference compound]	9280	–
CN(C)CCn1nnnc1SCC1=C(C(=O)OCOC(=O)OC2CCCCC2)N2C(=O)[C@@H](NC(=O)Cc3csc(N)n3)[C@H]2SC1 [Example 1-1, Cyclohexyloxycarbonyloxy 7β-[2-Aminothiazol-4-yl)Acetamido]-3-[[[1-(2-Dimethylaminoethyl)-1H-Tetrazol-5-yl]Thio]Methyl]Ceph-3-Em-4-Carboxylate Dihydrochloride]	30000	–
CC(OC(=O)OC1CCCCC1C)OC(=O)C1=C(CSc2nnnn2CCN(C)C)CSC2C(NC(=O)Cc3csc(N)n3)C(=O)N12 (stereo not drawn) [Example 2-12]	–	AUC ([1]; 100 mg/kg): 35500 ng·h/mL
CC(C)[C@@H]1CC[C@@H](C)C[C@H]1OC(=O)OCOC(=O)C1=C(CSc2nnnn2CCN(C)C)CS[C@@H]2[C@H](NC(=O)Cc3csc(N)n3)C(=O)N12 [Example 1-6]	29400	–
CC(OC(=O)OC1CCCCC1C)OC(=O)C1=C(CSc2nnnn2CCN(C)C)CSC2C(NC(=O)Cc3csc(N)n3)C(=O)N12 (stereo not drawn) [Example 2-13]	–	AUC ([1]; 100 mg/kg): 36100 ng·h/mL
CN(C)CCn1nnnc1SCC1=C(C(=O)OCOC(=O)OC2CCCCCCCCCCC2)N2C(=O)[C@@H](NC(=O)Cc3csc(N)n3)[C@H]2SC1 [Example 1-5]	33100	–
CN(C)CCn1nnnc1SCC1=C(C(=O)O)N2C(=O)[C@@H](NC(=O)Cc3csc(N)n3)[C@H]2SC1 [compound[II], 7β-[2-(2-aminothiazol-4-yl)acetamido]-3-[[[1-(2-dimethylaminoethyl)-1H-tetrazol-5-yl]thio]methyl]-ceph-3-em-4-carboxylic acid]	–	antibacterial activity (Klebsiella pneumoniae): potent antibacterial activity; Bioavailability [2]: 100%; antibacterial activity (Proteus vulgaris): potent antibacterial activity; antibacterial activity (Staphylococcus aureus): potent antibacterial activity; antibacterial activity (Escherichia coli): potent antibacterial activity; antibacterial activity (Proteus mirabilis): potent antibacterial activity; antibacterial activity (proteus morganii): potent antibacterial activity

The next lines start with results.

AUC [1] [ng·h/mL]	Structure (SMILES)	further results
36300	CCCC(OC(=O)OC1CCCCC1)OC(=O)C1=C(CSc2nnnn2CCN(C)C)CS[C@@H]2[C@H](NC(=O)Cc3csc(N)n3)C(=O)N12 (stereo partly drawn) [Example 5-7]	–
30100	CC1CCCC(OC(=O)OC(C)OC(=O)C2=C(CSc3nnnn3CCN(C)C)CS[C@@H]3[C@H](NC(=O)Cc4csc(N)n4)C(=O)N23)C1 (stereo partly drawn) [Example 2-10]	–
31300	CCC(OC(=O)OC1CCCCC1)OC(=O)C1=C(CSc2nnnn2CCN(C)C)CS[C@@H]2[C@H](NC(=O)Cc3csc(N)n3)C(=O)N12 (stereo partly drawn) [Example 5-2]	–
35400	CC(OC(=O)OC1CCCCC1C)OC(=O)C1=C(CSc2nnnn2CCN(C)C)CS[C@@H]2[C@H](NC(=O)Cc3csc(N)n3)C(=O)N12 (stereo partly drawn) [Example 2-11]	–
